From US6376506B1, “Sulfamide-metalloprotease inhibitors” (Syntex (U.S.A.) LLC, priority 1997, dated 2002)
Structures can show the parent of a compound that is named as a salt.

Tests used:
[1] = molecular target: T1, human collagenase-1 catalytic domain (Homo sapiens, UniProt P03956); assay: MMP inhibition in vitro, human collagenase-1; type: biochemical; conditions: MCA-Pro-Leu-Gly-Leu-DPA-Ala-Arg-NH2 hydrolysis at 37° C.; read-out: Collagenase-I IC50
T1 construct: the collagenase-1 catalytic domain was released by treatment with 1 mM of aminophenylmercuric acetate (APMA); ubiquitin (cleaved yes); made in house; host or cells: E. coli
T1 sequence (P03956 100-269 limits assumed): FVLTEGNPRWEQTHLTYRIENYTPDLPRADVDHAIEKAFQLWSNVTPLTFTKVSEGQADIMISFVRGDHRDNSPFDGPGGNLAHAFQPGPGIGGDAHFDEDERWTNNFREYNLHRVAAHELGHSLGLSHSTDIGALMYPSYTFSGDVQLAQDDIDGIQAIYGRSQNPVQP
Protocol: The catalytic domain of human collagenase-1 was expressed as a fusion protein with ubiquitin in E. Coli as described in Gehring, E. R. et al., J. Biol. Chem., 270, 22507, (1995). After purification of the fusion protein, the collagenase-1 catalytic domain was released by treatment with 1 mM of aminophenylmercuric acetate (APMA) for 1 hour at 37° C. and then purified by zinc chelate chromatography.
(§1) The matrix metalloprotease inhibitory activity of compounds of this invention in vitro was determined based on the hydrolysis of MCA-Pro-Leu-Gly-Leu-DPA-Ala-Arg-NH2 (Bachem, Inc.) at 37° C. as described in Knight, C. G., et al., FEBS Lett., 296, 263-266 (1992).
(§2) The matrix metalloprotease enzyme was diluted with assay buffer (50 mM Tricine pH 7.5, 200 mM NaCl, 10 mM CaCl2, and 0.005% Brij-35) containing 10 μmole of above substrate dissolved in DMSO. Compounds of the invention dissolved in DMSO or only DMSO (control samples) were added such that the final DMSO concentration in all assays was 2.5%. The fluorescence changes were monitored with a Perkin-Elmer LS-50B flourimeter using an excitation wavelength of 328 nm and an emission wavelength of 393 nm.

[2] = molecular target: T2, human collagenase-3 catalytic domain (Homo sapiens, UniProt P45452); assay: MMP inhibition in vitro, human collagenase-3; type: biochemical; conditions: MCA-Pro-Leu-Gly-Leu-DPA-Ala-Arg-NH2 hydrolysis at 37° C.; read-out: Collagenase-III IC50
T2 construct: After purification, the catalytic domain was released by treatment with 1 mM APMA for 1 hour at 37° C; ubiquitin (N, cleaved yes); made in house; host or cells: E. coli
Protocol: The propeptide and catalytic domain portion of human collagcenase-3 was expressed in E. Coli as an N-terminal fusion protein with ubiquitin. After purification, the catalytic domain was released by treatment with 1 mM APMA for 1 hour at 37° C., and then purified by zinc chelate chromatography.
as §1, §2

Row | Structure (SMILES) | melting point | IC50 [1] | IC50 [2]
1 | CC(NS(=O)(=O)N1CCc2c([nH]c3ccccc23)C1)C(=O)[O-].[Na+] (stereo not shown) | 209 to 211 °C (dec.) |  | 
2 | COCCN(CC(=O)NO)S(=O)(=O)N1CCN(c2ccc(Cl)cc2)CC1 (as salt: TFA) [compound 16] | 54.1 to 57.7 °C |  | 
3 | O=C(NO)C1CCCCN1S(=O)(=O)N1CCC(c2c[nH]c3ccc(F)cc23)CC1 (racemic) [compound 254] |  | > 50000 nM | 181 nM
4 | CC(=O)N1CCN(S(=O)(=O)N2CCC(C(=O)c3ccc(Cl)cc3)CC2)C(C(=O)NO)C1 (racemic) [compound 255] |  | 120 nM | 0.19 nM
5 | O=CN1CCN(S(=O)(=O)N2CCC(C(=O)c3ccc(Cl)cc3)CC2)C(C(=O)NO)C1 (racemic) [compound 262] |  | 88 nM | 0.13 nM
6 | COCCN(CC(=O)NO)S(=O)(=O)N1CCN(c2ccc(Cl)cc2)CC1 [compound 16] |  | 22000 nM | 21 nM
7 | O=C(CNS(=O)(=O)N1CCN(c2cccc(Cl)c2)CC1)NO [compound 33, N-hydroxy-2-{[4-(3-chlorophenyl)piperazine-1-sulfonyl]amino}acetamide] | 138.1 to 138.6 °C |  | 
8 | C[C@@H](NS(=O)(=O)N1CCC(Oc2ccc(Cl)cc2)CC1)C(=O)NO [compound 57, N-hydroxy-2-(R)-{[4-(4-chlorophenoxy)piperidine-1-sulfonyl]amino}propionamide] | 93 to 94 °C |  | 
9 | CC(C)(C)[C@@H](NS(=O)(=O)N1CCN(c2ccc(Cl)cc2)CC1)C(=S)NO [compound 62, N-hydroxy-2-(R)-{[4-(4-chlorophenyl)piperazine-1-sulfonyl]amino}-3-methyl-3-methylthiobutyramide] | 158.5 to 159.6 °C |  | 
10 | O=C(NO)[C@@H](Cc1ccc(O)cc1)NS(=O)(=O)N1CCN(c2ccc(Cl)cn2)CC1 [compound 103, N-hydroxy-2-(R)-{[4-(5-chloropyridin-2-yl)piperazine-1-sulfonyl]amino}-3-(4-hydroxyphenyl)propionamide] | 142 °C |  | 
11 | CC(C)[C@H](C(=O)NO)N(CCCc1cccnc1)S(=O)(=O)N1CCC(Oc2ccc(Br)cc2)CC1 [compound 105] |  | 129 nM | 0.59 nM
12 | C[C@H](NS(=O)(=O)N1CCC(C(=O)c2ccc(Cl)cc2)CC1)C(=O)NO [compound 125, N-hydroxy-2-(S)-{[4-(4-chlorobenzoyl)piperidine-1-sulfonyl]amino}propionamide] | 201.2 to 201.8 °C |  | 
13 | CC(C)[C@@H](NS(=O)(=O)N1CCC(c2ncc(-c3ccccc3)s2)CC1)C(=O)NO [compound 136, N-hydroxy-2-(R)-{[4-(5-phenylthiazol-2-yl)piperidine-1-sulfonyl]amino}-3-methylbutyramide] | 120 to 122.1 °C |  | 
14 | C[C@@H](NS(=O)(=O)N1CCC(C(=O)c2ccc(Oc3ccccc3)cc2)CC1)C(=O)NO [compound 148, N-hydroxy-2-(R)-{[4-(4-phenoxybenzoyl)piperidine-1-sulfonyl]amino}propionamide] | 202 to 205 °C |  | 
15 | C[C@@H](NS(=O)(=O)N1CCN(C(=O)Nc2ccc(Cl)cc2)CC1)C(=O)NO [compound 177, N-hydroxy-2-(R)-{[4-(4-chlorophenylaminocarbonyl)piperazine-1-sulfonyl]amino}propionamide] |  | 9300 nM | 1.6 nM
16 | N#Cc1ccc2[nH]cc(C3CCN(S(=O)(=O)N4CCCC[C@@H]4C(=O)NO)CC3)c2c1 [compound 294] |  | > 50000 nM | 340 nM
17 | C[C@@H](NS(=O)(=O)N1CCN(c2ccc(Cl)cc2)CC1)C(=O)O [compound 414] |  | > 50000 nM | 3400 nM
18 | C[C@H](C(=O)O)N(Cc1ccccc1)S(=O)(=O)NCc1ccccc1 [compound 431] |  | > 50000 nM | 6500 nM

Second part, the compound after the results:

Row | melting point | IC50 [1] | IC50 [2] | Structure (SMILES)
19 | 137.8 to 138.1 °C |  |  | O=C(NO)C1CCCCN1S(=O)(=O)N1CC=C(c2ccc(Cl)cc2)CC1 (racemic) [compound 375, N-hydroxy-1-[4-(4-chlorophenyl)-1,2,3,6-tetrahydropyridine-1-sulfonyl]piperidine-2-(RS)-carboxamide]
20 | 67 to 70 °C |  |  | Cc1cc(C2=CCN(S(=O)(=O)N3CCN(C(=O)OCc4ccccc4)CC3C(=O)NO)CC2)ccc1F (racemic) [compound 381, N-hydroxy-4-benzyloxycarbonyl-1-[4-(4-fluoro-3-methylphenyl)-1,2,3,6-tetrahydropyridine-1-sulfonyl]piperazine-2-(RS)-carboxamide]
21 | 81 to 96 °C |  |  | CC(C)[C@@H](NS(=O)(=O)N1CCC(Oc2cccc(Cl)n2)CC1)C(=O)NO [compound 183, N-hydroxy-2-(R)-{[4-(6-chloropyridin-2-yloxy)piperidine-1-sulfonyl]amino}-3-methylbutyramide]
22 | 171.1 to 171.4 °C |  |  | O=C(NO)[C@H](NS(=O)(=O)N1CCC(Oc2ccc(Cl)cn2)CC1)C1CCCCC1 [compound 207, N-hydroxy-2-(R)-{[4-(5-chloropyridin-2-yloxy)piperidine-1-sulfonyl]amino}-2-cyclohexylacetamide]
23 | 119 to 122 °C |  |  | C[C@@H](NS(=O)(=O)N1CCN(C(=O)Nc2ccc(Oc3ccccc3)cc2)CC1)C(=O)NO [compound 213, N-hydroxy-2-(R)-{[4-(4-phenoxyphenylaminocarbonyl)piperazine-1-sulfonyl]amino}propionamide]
24 | 90 to 92 °C |  |  | O=C(NO)[C@H](NS(=O)(=O)N1CCC(c2ccc(F)cc2)CC1)c1ccc(F)cc1 [compound 230, N-hydroxy-2-(R)-{[4-(4-fluorophenyl)piperidine-1-sulfonyl]amino}-2-(4-fluorophenyl)acetamide]
25 | 142 to 144 °C |  |  | O=C(NO)[C@H]1CCCCN1S(=O)(=O)N1CCCC1 [compound 232, N-hydroxy-1-(pyrrolidine-1-sulfonyl)piperidine-2-(R)-carboxamide]
26 |  | 130 nM | 0.2 nM | CN(C)C(=O)N1CCN(S(=O)(=O)N2CCC(C(=O)c3ccc(Cl)cc3)CC2)[C@@H](C(=O)NO)C1 [compound 298]
27 |  |  | 0.1 nM | CN(C)S(=O)(=O)N1CCN(S(=O)(=O)N2CCC(C(=O)c3ccc(Cl)cc3)CC2)[C@@H](C(=O)NO)C1 [compound 315]
28 | 124.5 to 125.5 °C |  |  | O=C(NO)C1(NS(=O)(=O)N2CCC(Oc3ccccc3)CC2)CCCC1 [compound 337, N-hydroxy-1-{[(4-phenoxy)piperidine-1-sulfonyl]amino}cyclopentane-1-carboxamide]
29 | 192.5 to 192.7 °C |  |  | O=C(NO)C1(NS(=O)(=O)N2CCN(c3ccc(Cl)cc3)CC2)CCOCC1 [compound 339, N-hydroxy-4-{[4-(4-chlorophenyl)piperazine-1-sulfonyl]amino}tetrahydropyran-4-carboxamide]
30 |  | 170 nM | 2.1 nM | O=C(NO)C1(NS(=O)(=O)N2CCN(c3ccc(Cl)cn3)CC2)CCCCC1 [compound 342]
31 | 185.7 to 186.7 °C |  |  | CC(C)(NS(=O)(=O)N1CCC(C(=O)c2ccc(Cl)cc2)CC1)C(=O)NO [compound 351, N-hydroxy-2-{[4-(4-chlorobenzoyl)piperidine-1-sulfonyl]amino}-2-methylpropionamide]
32 |  | 650 nM | 56 nM | CN(Cc1ccccc1)S(=O)(=O)N(CC(=O)NO)Cc1ccccc1 [compound 355]
33 |  | 2200 nM | 890 nM | CN(Cc1ccccc1)S(=O)(=O)N(CC(=O)O)Cc1ccccc1 [compound 430]
